Consider eight molecules from patent US5880314A, “Hydrochalcone derivatives, cosmetic compositions containing said derivatives and methods of producing the same” (priority 1995, dated 1999).

Data set [1] concerns B16 melanoma cells. The data set is described as follows: Melanoma cell depigmenting test (melanin production). In kind it is cell-based. Particulars: 5 days, control as 100%; for activity at 0.01 µg/mL / activity at 0.03 µg/mL / activity at 0.3 µg/mL: Mus musculus, B16, 120 h. The procedure: (Melanoma Cell Depigmenting Test)
Effect of compounds in suppressing melanin pigment synthesis was tested by measuring change in color of B16 melanoma cells when the cells were cultured at a concentration which had no adverse effect on growth of the cells. B16 Melanoma cells (1×10^5) were inoculated on 60 mm petri dishes. After 24 hours, 1,3-bis(2,4-dihydroxyphenyl)propane synthesized in Production Example 3, 1,3-bis(2,4-diacetoxyphenyl)propane synthesized in Production Example 4 and 1,3-bis(2,4-didodecanoyloxyphenyl)propane were added to the each medium, and incubation was curried out for 5 days. After incubation, the cells recovered by trypsin treatment were suspended in 0.3 ml of phosphate buffer and subjected to ultrasonic treatment for cell disruption, 0.3 ml of 4N NaOH was added to the treated suspension and the resultant suspension was incubated at 60° C. for 2 hours. Absorbance was measured at 400 nm and the amount of released melanin was calculated by setting the control as 100%. In Comparative Examples, similar tests were carried out using dihydrophloretin, a hydrochalcone compound, in place of the compounds of the present invention.

For data set [2], the system named is skin. Particulars: combined in cosmetics; cited from earlier work.
Data set [3] concerns synthesis of melanin. Particulars: reported in the literature; cited from earlier work.

In data set [1] (0.01 μg/ml), `CC(=O)Oc1ccc(CCCc2ccc(OC(C)=O)cc2OC(C)=O)c(OC(C)=O)c1` [1,3-bis(2,4-diacetoxyphenyl)propane] registered an activity at 0.01 µg/mL of 44%. The activity at 0.03 µg/mL in data set [1] (0.03 μg/ml) is 18%. Also, the activity at 0.3 µg/mL in data set [1] (0.30 μg/ml) was found to be 11%.

Molecule `CCCCCCCCCCCC(=O)Oc1ccc(CCCc2ccc(OC(=O)CCCCCCCCCCC)cc2OC(=O)CCCCCCCCCCC)c(OC(=O)CCCCCCCCCCC)c1` [1,3-bis(2,4-didodecanoyloxyphenyl)propane] registered an activity at 0.01 µg/mL in data set [1] (0.01 μg/ml) of 28%. The molecule further returned an activity at 0.03 µg/mL in data set [1] (0.03 μg/ml) of 9%. The molecule further had an activity at 0.3 µg/mL in data set [1] (0.30 μg/ml) of 7%.

`Oc1ccc(CCCc2ccc(O)cc2O)c(O)c1` [1,3-bis(2,4-dihydroxyphenyl)propane] displayed an activity at 0.01 µg/mL in data set [1] (0.01 μg/ml) of 31%. The same molecule showed an activity at 0.03 µg/mL in data set [1] (0.03 μg/ml) of 10%. The same molecule showed an activity at 0.3 µg/mL in data set [1] (0.30 μg/ml) of 7%.

Regarding `Oc1ccc(OCc2ccccc2)cc1` [hydroquinone monobenzyl ether], in data set [2], the “lightening of skin darkened with deposited pigment” value was “effectively lightened”; the side effects result was “side effects such as skin allergies and irritation”.

As for `O=C(CCc1ccc(O)cc1)c1c(O)cc(O)cc1O[C@@H]1O[C@H](CO)[C@@H](O)[C@H](O)[C@H]1O` [phlorizin], in data set [3], the “effect in suppressing the synthesis of melanin” value (from here on “effect … of melanin”) is given as “have an effect in suppressing the synthesis of melanin”.

Consider dihydrophloretin, for which the “Melanin production (%)” value in data set [1] (0.01 μg/ml) amounted to 92%; in data set [1] (0.03 μg/ml), 80%; in data set [1] (0.30 μg/ml) it was 65%. Moreover, in data set [3], the “effect … of melanin” value is “have an effect in suppressing the synthesis of melanin”.

With phlorezin, in data set [3], the “effect … of melanin” value was “have an effect in suppressing the synthesis of melanin”.

As to phlorine, the “effect … of melanin” value in data set [3] is “have an effect in suppressing the synthesis of melanin”.
